#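 GI50 = concentration required for 50% inhibition of growth. Definition used: TGI = concentration required for complete inhibition of growth.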
# Key:
# Experiment in all cases: growth of human tumour cells (NCI), 384-well format
# KM12 colon = system: KM12 colon
# A498 renal = system: A498 renal
# SNB-19 CNS = system: SNB-19 CNS
# HOP-62 NSCLC = system: HOP-62 NSCLC
# UACC-62 melanoma = system: UACC-62 melanoma
# K-562 leukemia = system: K-562 leukemia
# UACC-257 melanoma = system: UACC-257 melanoma
# M14 melanoma = system: M14 melanoma
# PC-3 prostate = system: PC-3 prostate
# 786-0 renal = system: 786-0 renal
# U251 glioblastoma = system: U251 glioblastoma
# MDA-MB-468 breast = system: MDA-MB-468 breast
# RXF 393 renal = system: RXF 393 renal
# SK-MEL-28 melanoma = system: SK-MEL-28 melanoma
# CAKI-1 renal = system: CAKI-1 renal
# HCT-15 colon = system: HCT-15 colon
# ACHN renal = system: ACHN renal
# SW-620 colon = system: SW-620 colon
# EKVX NSCLC = system: EKVX NSCLC
# MDA-MB-231 breast = system: MDA-MB-231 breast
# OVCAR-8 ovarian = system: OVCAR-8 ovarian
# UO-31 renal = system: UO-31 renal
# NCI-H23 lung = system: NCI-H23 lung
# A549 NSCLC = system: A549 NSCLC
# SN12C renal = system: SN12C renal
# SR leukemia = system: SR leukemia
# MOLT-4 leukemia = system: MOLT-4 leukemia
# DU-145 prostate = system: DU-145 prostate
# SK-MEL-2 melanoma = system: SK-MEL-2 melanoma
# NCI-H460 NSCLC = system: NCI-H460 NSCLC
# OVCAR-3 ovarian = system: OVCAR-3 ovarian
# HCT-116 colon = system: HCT-116 colon
# OVCAR-4 ovarian = system: OVCAR-4 ovarian
# HS 578T breast = system: HS 578T breast
# MALME-3M melanoma = system: MALME-3M melanoma
# SK-OV-3 ovarian = system: SK-OV-3 ovarian
# SF-268 CNS = system: SF-268 CNS
# COLO 205 colon = system: COLO 205 colon
# T-47D breast = system: T-47D breast
# HOP-92 NSCLC = system: HOP-92 NSCLC
# SNB-75 CNS = system: SNB-75 CNS
# SF-295 CNS = system: SF-295 CNS
# NCI-H226 lung = system: NCI-H226 lung
# MCF7 breast = system: MCF7 breast
# SF-539 CNS = system: SF-539 CNS
# NCI-H322M lung = system: NCI-H322M lung
# TK-10 renal = system: TK-10 renal
# BT-549 breast = system: BT-549 breast
# HT29 colon = system: HT29 colon
# MDA-MB-435 melanoma = system: MDA-MB-435 melanoma
# NCI-H522 lung = system: NCI-H522 lung
# SK-MEL-5 melanoma = system: SK-MEL-5 melanoma
# HL-60(TB) leukemia = system: HL-60(TB) leukemia
# IGROV1 ovarian = system: IGROV1 ovarian
# OVCAR-5 ovarian = system: OVCAR-5 ovarian
compound,measurement,setting,value
COC1(C(=O)N[C@@H](C)c2ccc(-n3cc(F)cn3)nc2)CCC(c2nc(C)cc(Nc3cc(C)[nH]n3)n2)CC1 (stereo not given in full),GI50,KM12 colon,5.12 µM
same,TGI,KM12 colon,18.3 µM
same,GI50,A498 renal,1.83 µM
same,TGI,A498 renal,4.4 µM
same,GI50,SNB-19 CNS,3.69 µM
same,TGI,SNB-19 CNS,18.1 µM
same,GI50,HOP-62 NSCLC,1.46 µM
same,TGI,HOP-62 NSCLC,6.13 µM
same,GI50,UACC-62 melanoma,5.55 µM
same,TGI,UACC-62 melanoma,18.5 µM
same,GI50,K-562 leukemia,1.7 µM
same,TGI,K-562 leukemia,11.6 µM
same,GI50,UACC-257 melanoma,15.7 µM
same,TGI,UACC-257 melanoma,29.3 µM
same,GI50,M14 melanoma,11.3 µM
same,TGI,M14 melanoma,23.4 µM
same,GI50,PC-3 prostate,3.42 µM
same,TGI,PC-3 prostate,15.7 µM
same,GI50,786-0 renal,1.82 µM
same,TGI,786-0 renal,6.42 µM
same,GI50,U251 glioblastoma,1.54 µM
same,TGI,U251 glioblastoma,12.3 µM
same,GI50,MDA-MB-468 breast,1.74 µM
same,TGI,MDA-MB-468 breast,4.8 µM
same,GI50,RXF 393 renal,0.138 µM
same,TGI,RXF 393 renal,0.671 µM
same,GI50,SK-MEL-28 melanoma,12 µM
same,TGI,SK-MEL-28 melanoma,24.5 µM
same,GI50,CAKI-1 renal,1.28 µM
same,TGI,CAKI-1 renal,2.69 µM
same,GI50,HCT-15 colon,4.58 µM
same,TGI,HCT-15 colon,17.2 µM
same,GI50,ACHN renal,0.896 µM
same,TGI,ACHN renal,4.45 µM
same,GI50,SW-620 colon,2.58 µM
same,TGI,SW-620 colon,17 µM
same,GI50,EKVX NSCLC,0.545 µM
same,TGI,EKVX NSCLC,2.29 µM
same,GI50,MDA-MB-231 breast,2.6 µM
same,TGI,MDA-MB-231 breast,14 µM
same,GI50,OVCAR-8 ovarian,3.35 µM
same,TGI,OVCAR-8 ovarian,12.9 µM
same,GI50,UO-31 renal,1.14 µM
same,TGI,UO-31 renal,2.78 µM
same,GI50,NCI-H23 lung,0.629 µM
same,TGI,NCI-H23 lung,10.6 µM
same,GI50,A549 NSCLC,2.41 µM
same,TGI,A549 NSCLC,12 µM
same,GI50,SN12C renal,0.493 µM
same,TGI,SN12C renal,10 µM
same,GI50,SR leukemia,2.13 µM
same,TGI,SR leukemia,5.27 µM
same,GI50,MOLT-4 leukemia,1.84 µM
same,TGI,MOLT-4 leukemia,5.62 µM
same,GI50,DU-145 prostate,1.72 µM
same,TGI,DU-145 prostate,4.04 µM
same,GI50,SK-MEL-2 melanoma,11 µM
same,TGI,SK-MEL-2 melanoma,23.1 µM
same,GI50,NCI-H460 NSCLC,0.0527 µM
same,TGI,NCI-H460 NSCLC,13.7 µM
same,GI50,OVCAR-3 ovarian,1.67 µM
same,TGI,OVCAR-3 ovarian,12.8 µM
same,GI50,HCT-116 colon,4.04 µM
same,TGI,HCT-116 colon,17.3 µM
same,GI50,OVCAR-4 ovarian,2.12 µM
same,TGI,OVCAR-4 ovarian,17.8 µM
same,GI50,HS 578T breast,0.253 µM
same,TGI,HS 578T breast,1.58 µM
same,GI50,MALME-3M melanoma,11.3 µM
same,TGI,MALME-3M melanoma,23.6 µM
same,GI50,SK-OV-3 ovarian,0.605 µM
same,TGI,SK-OV-3 ovarian,2.64 µM
same,GI50,SF-268 CNS,1.38 µM
same,TGI,SF-268 CNS,3.69 µM
same,GI50,COLO 205 colon,13.8 µM
same,TGI,COLO 205 colon,26.9 µM
same,GI50,T-47D breast,2.28 µM
same,TGI,T-47D breast,10.7 µM
same,GI50,HOP-92 NSCLC,0.691 µM
same,TGI,HOP-92 NSCLC,2.67 µM
same,GI50,SNB-75 CNS,0.285 µM
same,TGI,SNB-75 CNS,1.32 µM
same,GI50,SF-295 CNS,1.39 µM
same,TGI,SF-295 CNS,4.21 µM
same,GI50,NCI-H226 lung,0.246 µM
same,TGI,NCI-H226 lung,2.08 µM
same,GI50,MCF7 breast,2 µM
same,TGI,MCF7 breast,14.4 µM
same,GI50,SF-539 CNS,0.226 µM
same,TGI,SF-539 CNS,1.12 µM
same,GI50,NCI-H322M lung,2.12 µM
same,TGI,NCI-H322M lung,11.1 µM
same,GI50,TK-10 renal,1.4 µM
same,TGI,TK-10 renal,3.93 µM
same,GI50,BT-549 breast,0.813 µM
same,TGI,BT-549 breast,2.56 µM
same,GI50,HT29 colon,4.94 µM
same,TGI,HT29 colon,19.1 µM
same,GI50,MDA-MB-435 melanoma,11.7 µM
same,TGI,MDA-MB-435 melanoma,24.1 µM
same,GI50,NCI-H522 lung,1.19 µM
same,TGI,NCI-H522 lung,3.11 µM
same,GI50,SK-MEL-5 melanoma,2.3 µM
same,TGI,SK-MEL-5 melanoma,11.2 µM
same,GI50,HL-60(TB) leukemia,5.4 µM
same,TGI,HL-60(TB) leukemia,18.5 µM
same,GI50,IGROV1 ovarian,0.304 µM
same,TGI,IGROV1 ovarian,1.37 µM
same,GI50,OVCAR-5 ovarian,2.31 µM
same,TGI,OVCAR-5 ovarian,13.9 µM
CC(C)(C)C[C@H]1NC(C(=O)NCC[C@H](O)CO)[C@H](c2cccc(Cl)c2)[C@@]12C(=O)Nc1cc(Cl)c(F)cc12 (stereo not given in full),GI50,KM12 colon,1.6 µM
same,TGI,KM12 colon,12.8 µM
same,GI50,A498 renal,1.12 µM
same,TGI,A498 renal,11.7 µM
same,GI50,SNB-19 CNS,15.8 µM
same,TGI,SNB-19 CNS,29.4 µM
same,GI50,HOP-62 NSCLC,16.5 µM
same,TGI,HOP-62 NSCLC,30.2 µM
same,GI50,UACC-62 melanoma,0.591 µM
same,TGI,UACC-62 melanoma,11.1 µM
same,GI50,K-562 leukemia,13.7 µM
same,TGI,K-562 leukemia,27 µM
same,GI50,UACC-257 melanoma,1.76 µM
same,TGI,UACC-257 melanoma,5.36 µM
same,GI50,M14 melanoma,10.3 µM
same,TGI,M14 melanoma,22.1 µM
same,GI50,PC-3 prostate,13.1 µM
same,TGI,PC-3 prostate,25.9 µM
same,GI50,786-0 renal,15.6 µM
same,TGI,786-0 renal,29 µM
same,GI50,U251 glioblastoma,14.4 µM
same,TGI,U251 glioblastoma,27.6 µM
same,GI50,MDA-MB-468 breast,3.31 µM
same,TGI,MDA-MB-468 breast,16.1 µM
same,GI50,RXF 393 renal,2.38 µM
same,TGI,RXF 393 renal,15.3 µM
same,GI50,SK-MEL-28 melanoma,16.7 µM
same,TGI,SK-MEL-28 melanoma,30.4 µM
same,GI50,CAKI-1 renal,0.605 µM
same,TGI,CAKI-1 renal,11.7 µM
same,GI50,HCT-15 colon,17.4 µM
same,TGI,HCT-15 colon,31.5 µM
same,GI50,ACHN renal,1.36 µM
same,TGI,ACHN renal,10.6 µM
same,GI50,SW-620 colon,16.8 µM
same,TGI,SW-620 colon,30.6 µM
same,GI50,EKVX NSCLC,12.5 µM
same,TGI,EKVX NSCLC,25 µM
same,GI50,MDA-MB-231 breast,16.2 µM
same,TGI,MDA-MB-231 breast,29.8 µM
same,GI50,OVCAR-8 ovarian,16.4 µM
same,TGI,OVCAR-8 ovarian,30.1 µM
same,GI50,UO-31 renal,4.29 µM
same,TGI,UO-31 renal,15.9 µM
same,GI50,NCI-H23 lung,15 µM
same,TGI,NCI-H23 lung,28.3 µM
same,GI50,A549 NSCLC,2.94 µM
same,TGI,A549 NSCLC,14.1 µM
same,GI50,SN12C renal,17.1 µM
same,TGI,SN12C renal,30.9 µM
same,GI50,SR leukemia,0.2 µM
same,TGI,SR leukemia,0.394 µM
same,GI50,MOLT-4 leukemia,0.181 µM
same,TGI,MOLT-4 leukemia,0.341 µM
same,GI50,DU-145 prostate,15.8 µM
same,TGI,DU-145 prostate,29.4 µM
same,GI50,SK-MEL-2 melanoma,14.6 µM
same,TGI,SK-MEL-2 melanoma,27.7 µM
same,GI50,NCI-H460 NSCLC,14.6 µM
same,TGI,NCI-H460 NSCLC,27.9 µM
same,GI50,OVCAR-3 ovarian,13.7 µM
same,TGI,OVCAR-3 ovarian,26.7 µM
same,GI50,HCT-116 colon,0.962 µM
same,TGI,HCT-116 colon,13.8 µM
same,GI50,OVCAR-4 ovarian,11.9 µM
same,TGI,OVCAR-4 ovarian,24.3 µM
same,GI50,HS 578T breast,6.45 µM
same,TGI,HS 578T breast,20.4 µM
same,GI50,MALME-3M melanoma,0.582 µM
same,TGI,MALME-3M melanoma,14.7 µM
same,GI50,SK-OV-3 ovarian,13.9 µM
same,TGI,SK-OV-3 ovarian,27.1 µM
same,GI50,SF-268 CNS,16 µM
same,TGI,SF-268 CNS,29.6 µM
same,GI50,COLO 205 colon,15.8 µM
same,TGI,COLO 205 colon,29.3 µM
same,GI50,T-47D breast,11.7 µM
same,TGI,T-47D breast,24 µM
same,GI50,HOP-92 NSCLC,14.7 µM
same,TGI,HOP-92 NSCLC,27.8 µM
same,GI50,SNB-75 CNS,10.9 µM
same,TGI,SNB-75 CNS,22.9 µM
same,GI50,SF-295 CNS,12.9 µM
same,TGI,SF-295 CNS,25.6 µM
same,GI50,NCI-H226 lung,0.515 µM
same,TGI,NCI-H226 lung,2.17 µM
same,GI50,MCF7 breast,0.243 µM
same,TGI,MCF7 breast,1.77 µM
same,GI50,SF-539 CNS,13.4 µM
same,TGI,SF-539 CNS,26.3 µM
same,GI50,NCI-H322M lung,17.5 µM
same,TGI,NCI-H322M lung,31.4 µM
same,GI50,TK-10 renal,14.6 µM
same,TGI,TK-10 renal,28.2 µM
same,GI50,BT-549 breast,15.1 µM
same,TGI,BT-549 breast,28.5 µM
same,GI50,HT29 colon,15.8 µM
same,TGI,HT29 colon,29.4 µM
same,GI50,MDA-MB-435 melanoma,14.6 µM
same,TGI,MDA-MB-435 melanoma,27.8 µM
same,GI50,NCI-H522 lung,12.8 µM
same,TGI,NCI-H522 lung,25.5 µM
same,GI50,SK-MEL-5 melanoma,2.79 µM
same,TGI,SK-MEL-5 melanoma,16.4 µM
same,GI50,HL-60(TB) leukemia,4.2 µM
same,TGI,HL-60(TB) leukemia,16.5 µM
same,GI50,IGROV1 ovarian,6.37 µM
same,TGI,IGROV1 ovarian,20.2 µM
same,GI50,OVCAR-5 ovarian,15.9 µM
same,TGI,OVCAR-5 ovarian,29.5 µM

# From PubChem BioAssay (NCI)
